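Tested at 5 concentrations; 48 h exposure; 96-well plates; endpoints linearly interpolated, else capped at highest concentration. Abbreviation: GI50, concentration required for 50% inhibition of growth. TGI: concentration producing complete growth inhibition.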
Legend:
Assay in all cases: DTP human tumour cell line panel, 48 h
[1] = system: NCI-H522 lung
[2] = system: U251 CNS
[3] = system: COLO 205 colon
[4] = system: SK-MEL-5 melanoma
[5] = system: SNB-19 CNS
[6] = system: CAKI-1 renal
[7] = system: SK-OV-3 ovarian
[8] = system: IGROV1 ovarian
[9] = system: PC-3 prostate
[10] = system: MDA-MB-231 breast
[11] = system: A498 renal
[12] = system: SF-268 CNS
[13] = system: A549 NSCLC
[14] = system: MCF7 breast
[15] = system: MDA-N
[16] = system: LOX IMVI melanoma
[17] = system: RPMI-8226 leukemia
[18] = system: SK-MEL-28 melanoma
[19] = system: RXF 393 renal
[20] = system: K-562 leukemia
[21] = system: NCI-H23 lung
[22] = system: SN12C renal
[23] = system: HCC-2998 colon
[24] = system: BT-549 breast
[25] = system: SF-295 CNS
[26] = system: HOP-62 NSCLC
[27] = system: UACC-257 melanoma
[28] = system: T-47D breast
[29] = system: SW-620 colon
[30] = system: SNB-75 CNS
[31] = system: NCI/ADR-RES ovarian
[32] = system: TK-10 renal
[33] = system: HCT-116 colon
[34] = system: MALME-3M melanoma
[35] = system: EKVX NSCLC
[36] = system: OVCAR-5 ovarian
[37] = system: SK-MEL-2 melanoma
[38] = system: M14 melanoma
[39] = system: NCI-H226 lung
[40] = system: NCI-H460 lung
[41] = system: UO-31 renal
[42] = system: SF-539 CNS
[43] = system: 786-0 renal
[44] = system: OVCAR-8 ovarian
[45] = system: KM12 colon
[46] = system: HOP-92 NSCLC
[47] = system: ACHN renal
[48] = system: MOLT-4 leukemia
[49] = system: HCT-15 colon
[50] = system: OVCAR-4 ovarian
[51] = system: OVCAR-3 ovarian
[52] = system: UACC-62 melanoma
[53] = system: HL-60(TB) leukemia
[54] = system: DU-145 prostate
[55] = system: SR leukemia
[56] = system: MDA-MB-435
[57] = system: HT29 colon
[58] = system: CCRF-CEM leukemia
[59] = system: HS 578T breast

Compound: CCCCCCCCC#CCCCCCCCCCC[C@@H]1C(=O)O[C@H](C)[C@@H]1O (tested in a mixture with another compound)
- TGI [1]: 18.8 µM
- TGI [2]: > 100 µM
- TGI [3]: > 100 µM
- TGI [4]: 26.8 µM
- TGI [5]: 38.1 µM
- TGI [6]: 29.1 µM
- TGI [7]: > 100 µM
- TGI [8]: 32.7 µM
- TGI [9]: 46.9 µM
- TGI [10]: 94.6 µM
- TGI [11]: > 100 µM
- TGI [12]: 30.4 µM
- TGI [13]: 28.6 µM
- TGI [14]: 50.5 µM
- TGI [15]: 79.6 µM
- TGI [16]: 28.8 µM
- TGI [17]: 39.9 µM
- TGI [18]: > 100 µM
- TGI [19]: 28.4 µM
- TGI [20]: 21.4 µM
- TGI [21]: 22.3 µM
- TGI [22]: 32.3 µM
- TGI [23]: > 100 µM
- TGI [24]: 38.5 µM
- TGI [25]: 65.4 µM
- TGI [26]: 39 µM
- TGI [27]: > 100 µM
- TGI [28]: > 100 µM
- TGI [29]: 36.4 µM
- TGI [30]: 52.4 µM
- TGI [31]: 23.8 µM
- TGI [32]: 40.8 µM
- TGI [33]: > 100 µM
- TGI [34]: 44 µM
- TGI [35]: 54.9 µM
- TGI [36]: > 100 µM
- TGI [37]: 46.4 µM
- TGI [38]: 41 µM
- TGI [39]: > 100 µM
- TGI [40]: 35.8 µM
- TGI [41]: 35.3 µM
- TGI [42]: 42.1 µM
- TGI [43]: 31.4 µM
- TGI [44]: 29.1 µM
- TGI [45]: 21.9 µM
- TGI [46]: 25.1 µM
- TGI [47]: 45.2 µM
- TGI [48]: 33.5 µM
- TGI [49]: > 100 µM
- TGI [50]: 54.9 µM
- TGI [51]: 38.6 µM

Compound: CN(C)CCCn1c(=O)c2ccccc2c2cnc3[nH]ccc3c21
- GI50 [1]: 1.82 µM
- TGI [1]: 5.03 µM
- GI50 [2]: 2.12 µM
- TGI [2]: 7.21 µM
- GI50 [3]: 0.686 µM
- TGI [3]: 3.54 µM
- GI50 [4]: 1.77 µM
- TGI [4]: 3.51 µM
- GI50 [52]: 1.59 µM
- TGI [52]: 2.97 µM
- GI50 [5]: 2.19 µM
- TGI [5]: 10.6 µM
- GI50 [6]: 1.94 µM
- TGI [6]: 4.66 µM
- GI50 [7]: 1.97 µM
- TGI [7]: 7.11 µM
- GI50 [8]: 2.28 µM
- TGI [8]: 11.7 µM
- GI50 [9]: 1.69 µM
- TGI [9]: 11.1 µM
- GI50 [10]: 1.99 µM
- TGI [10]: 8.83 µM
- GI50 [11]: 1.03 µM
- TGI [11]: 2.37 µM
- GI50 [53]: 3.27 µM
- TGI [53]: 9.08 µM
- GI50 [12]: 1.44 µM
- TGI [12]: 5.02 µM
- GI50 [14]: 2.74 µM
- TGI [14]: 11.3 µM
- GI50 [16]: 0.631 µM
- TGI [16]: 3.27 µM
- GI50 [17]: 2.23 µM
- TGI [17]: 7.3 µM
- GI50 [18]: 2.23 µM
- TGI [18]: 5.18 µM
- GI50 [19]: 1.4 µM
- TGI [19]: 3.99 µM
- GI50 [20]: 2.03 µM
- TGI [20]: 11.5 µM
- GI50 [21]: 1.76 µM
- TGI [21]: 6.62 µM
- GI50 [22]: 2.17 µM
- TGI [22]: 14.6 µM
- GI50 [23]: 2.03 µM
- TGI [23]: 7.72 µM
- GI50 [54]: 2.14 µM
- TGI [54]: 8.97 µM
- GI50 [24]: 2.95 µM
- TGI [24]: 9.58 µM
- GI50 [25]: 1.18 µM
- TGI [25]: 6.65 µM
- GI50 [26]: 1.49 µM
- TGI [26]: 5.72 µM
- GI50 [27]: 2.26 µM
- TGI [27]: 5.59 µM
- GI50 [28]: 2.5 µM
- TGI [28]: 7.42 µM
- GI50 [29]: 0.529 µM
- TGI [29]: 3.66 µM
- GI50 [30]: 1.17 µM
- TGI [30]: 3.6 µM
- GI50 [31]: 1.25 µM
- TGI [31]: 6.24 µM
- GI50 [55]: 0.63 µM
- TGI [55]: 13.6 µM
- GI50 [33]: 0.486 µM
- TGI [33]: 10.3 µM
- GI50 [56]: 1.76 µM
- TGI [56]: 6.66 µM
- GI50 [34]: 1.69 µM
- TGI [34]: 4.55 µM
- GI50 [57]: 1.27 µM
- TGI [57]: 8.35 µM
- GI50 [35]: 2.27 µM
- TGI [35]: 8.43 µM
- GI50 [36]: 2.27 µM
- TGI [36]: 14.9 µM
- GI50 [37]: 1.79 µM
- TGI [37]: 5.38 µM
- GI50 [38]: 1.83 µM
- TGI [38]: 4.44 µM
- GI50 [39]: 0.862 µM
- TGI [39]: 2.58 µM
- GI50 [40]: 0.8 µM
- TGI [40]: 2.62 µM
- GI50 [58]: 1.53 µM
- TGI [58]: 8.44 µM
- GI50 [42]: 2.34 µM
- TGI [42]: 7.04 µM
- GI50 [43]: 0.85 µM
- TGI [43]: 10.9 µM
- GI50 [44]: 1.43 µM
- TGI [44]: 6.88 µM
- GI50 [45]: 1.63 µM
- TGI [45]: 9.78 µM
- GI50 [46]: 1.8 µM
- TGI [46]: 8.16 µM
- GI50 [47]: 0.564 µM
- TGI [47]: 7.08 µM
- GI50 [48]: 0.838 µM
- TGI [48]: 11 µM
- GI50 [49]: 2 µM
- TGI [49]: 9.58 µM
- GI50 [50]: 1.92 µM
- TGI [50]: 8.63 µM
- GI50 [51]: 2.4 µM
- TGI [51]: 6.35 µM
- GI50 [59]: 2.53 µM
- TGI [59]: 11.2 µM

Source: PubChem BioAssay (NCI)
